Measurements as given in EP0230922A2, “Use of peptides in the preparation of agents for the treatment of coronary diseases or organic brain syndrome” (BOEHRINGER INGELHEIM KG, priority 1986, dated 1987).
Values joined by “and” are separate entries in the source; they are usually repeats but may differ in a detail not shown here. Identical values can stand only once.

What was measured:
Mäuse (ChbI:NMRI) = assay: Scopolamine test: passive avoidance in mice; assay type: in vivo; settings: per os, scopolamine hydrobromide 0,6 mg/kg s.c., test 1 h after dosing
Source text: Durch den cholinerg-muskarinen Antagonisten Scopolamin wird bei Mensch und Tier eine vorübergehende Störung des übergangs von Inhalten des Kurzzeitgedächtnisses in das Langzeitgedächtnis hervorgerufen. Die auch klinisch bei gesunden Probanden durch Scopolamin auslösbaren, mnestischen Störungen sind in ihrer Ausprägung den psychopathologischen Veränderungen bei Patienten mit organischem Hirnsyndrom ähnlich (Drachman & Leavitt, 1974).
Der Scopolamin-Test wird an Gruppen von jeweils 10 männlichen, nicht nüchternen, naiven Mäusen (ChbI:NMRI: Körpergewicht 35 g) mit Hilfe einer passiven Vermeidereaktion durchgeführt. Das Testgerät besteht aus einer Skinner Box (30 cm x 26 cm x 29 cm) mit einem elektrifizierbaren Gitterboden und einer Plastikplattform (5 cm x 5 cm) an einer Seitenwand. Die Tiere werden einzeln in die Skinner Box gesetzt. Nach einer Orientierungsperiode von 30 sec werden kurze, unterbrochene Stromstöße von ca. 0,8 mA so oft an den Gitterboden der Box gelegt, bis das Tier gelernt hat, daß das Aufsuchen und Verweilen auf der Plastikplattform vor dem Stromstoß Sicherheit gewährt. Tiere, welche dies innerhalb von 120 sec nicht lernen, werden nicht weiter verwendet. Die anderen Mäuse werden unmittelbar nach Erlernen der passiven Vermeidereaktion in drei Gruppen (10 Tiere pro Gruppe) eingeteilt. Eine Gruppe erhält Scopolaminhydrobromid (0,6 mg/kg s.c.) und oral Vehikel (0,5 % Tylose); die zweite Gruppe Scopolaminhydrobromid sowie die zu testende Substanz per os in 0,5 % Tylose und die dritte Gruppe lediglich 0,5 % Tylose p.o.. Eine Stunde nach Applikation wird jedes Tier einzeln auf die Plattform gesetzt, um das Erinnerungsvermögen an die erlernte Vermeidereaktion zu prüfen. Das Kriterium besteht in der Bestimmung, ob die Maus während mindestens 60 sec auf der Plattform verbleibt (Ja-Antwort) oder nicht (Nein-Antwort).
Etwa 75 % der Tiere, welche ausschließlich mit 0,5 % Tylose behandelt wurden, verbleiben bei der abschließenden Prüfung länger als 60 sec auf der Plattform: ein Ergebnis, welches als Ausdruck des guten Erinnerungsvermögens an die erlernte Erfahrung gedeutet werden kann. Nach Gabe von Scopolamin und Tylose verbleiben durchschnittlich etwa 25 % der Tiere auf der Plattform; dies zeigt die erhebliche Beeinträchtigung des Erinnerungsvermögens nach Gabe von Scopolamin.

Mäuse (ChbI: NMRI) = assay: Hypoxia tolerance: survival of mice in a closed chamber (96,5 % N2, 3,5 % O2); assay type: in vivo; settings: given 24 h, 16 h and 30 min before test, 10 mice per group
Source text: 1. HYPOXIE-TOLERANZ, d.h. bei der Prüfung der überlebensfähigkeit von Tieren in einer geschlossenen Kammer.
Eine aus Plexiglas hergestellte, durchsichtige, mit einem Deckel verschließbare Kammer (28 cm x 40 cm x 20 cm; Gesamtvolumen 22,4 1) ist in 2 Hälften geteilt, in die je 10 männliche oder weibliche Mäuse (ChbI: NMRI; 20-25 g Körpergewicht) gesetzt werden. Die Kammer wird mit einem Gasgemisch, bestehend aus 96,5 % N2 und 3,5 % 02 durchströmt; das Strömungsvolumen beträgt 12 1/min.
Eine der beiden Gruppen erhält Prüfsubstanzen, die andere das Vehikel (0,5 % Tylose), die 24 h, 16 h und 30 min vor dem Test oral appliziert werden. Etwa 6-7 min nach Beginn der Durchströmung der Kammer sterben die ersten Tiere. Das Experiment wird beendet, wenn in der Kontrollgruppe nur noch 2-3 Tiere Zeichen von Leben zeigen.
Ohne die Tiere zu berühren, wird 15 min gewartet und dann die Zahl der überlebenden Tiere in den beiden Hälften der Kammern endgültig festgestellt. Die statistische Signifikanz der Differenz der überlebenden Tiere in beiden Gruppen kann mit dem "Exakten Test von Fisher für 2 x 2 Feldertafeln" festgestellt werden.

Compound: C[C@H](NC(=O)[C@H](Cc1ccccc1)SCOC(=O)C(C)(C)C)C(=O)N1CCC[C@H]1C(=O)OCOC(=O)C(C)(C)C [Verbindung 1, N-[N-(3-Phenyl-2-S-pivaloyloxymethylmercapto-propanoyl)-S-alanyl]-S-prolin-pivaloyloxymethylester]
- %der Tiere bei welcher die Scopol-amin-Wirkung anta-gonisiert wurde (Mäuse (ChbI:NMRI); Dosis 5 (unit not given)): 80% and 40%
- %der Tiere bei welcher die Scopol-amin-Wirkung anta-gonisiert wurde (Mäuse (ChbI:NMRI); Dosis 10 (unit not given)): 40% and 30%
- %der Tiere bei welcher die Scopol-amin-Wirkung anta-gonisiert wurde (Mäuse (ChbI:NMRI); Dosis 20 (unit not given)): 40%
- %der Tiere bei welcher die Scopol-amin-Wirkung anta-gonisiert wurde (Mäuse (ChbI:NMRI); Dosis 30 (unit not given)): 40%
- Behandelte Tiere Überlebende % (Mäuse (ChbI: NMRI); 10 mg/kg p.o.): 100%
- Behandelte Tiere Überlebende % (Mäuse (ChbI: NMRI); 30 mg/kg p.o.): 80%

Compound: C[C@H](NC(=O)[C@H](Cc1ccccc1)SC(=O)c1ccccc1)C(=O)N1CCC[C@H]1C(=O)O [Verbindung 2, N-[N-(3-Phenyl-2-S-benzoylmercaptopropanoyl)-S-alanyl]-S-prolin]
- %der Tiere bei welcher die Scopol-amin-Wirkung anta-gonisiert wurde (Mäuse (ChbI:NMRI); Dosis 1 (unit not given)): 30%
- %der Tiere bei welcher die Scopol-amin-Wirkung anta-gonisiert wurde (Mäuse (ChbI:NMRI); Dosis 5 (unit not given)): 50%
- %der Tiere bei welcher die Scopol-amin-Wirkung anta-gonisiert wurde (Mäuse (ChbI:NMRI); Dosis 10 (unit not given)): 50% and 30%
- Behandelte Tiere Überlebende % (Mäuse (ChbI: NMRI); 30 mg/kg p.o.): 60%

Compound: CC(=O)S[C@@H](Cc1ccccc1)C(=O)N[C@@H](C)C(=O)N1CCC[C@H]1C(=O)OCOC(=O)C(C)(C)C [Verbindung 3, N-[N-(3-Phenyl-2-S-acetylmercaptopropanoyl)-S-alanyl]-S-prolin-pivaloyloxymethylester]
- %der Tiere bei welcher die Scopol-amin-Wirkung anta-gonisiert wurde (Mäuse (ChbI:NMRI); Dosis 0,5 (unit not given)): 40%
- %der Tiere bei welcher die Scopol-amin-Wirkung anta-gonisiert wurde (Mäuse (ChbI:NMRI); Dosis 1 (unit not given)): 60%
- %der Tiere bei welcher die Scopol-amin-Wirkung anta-gonisiert wurde (Mäuse (ChbI:NMRI); Dosis 5 (unit not given)): 40%
- %der Tiere bei welcher die Scopol-amin-Wirkung anta-gonisiert wurde (Mäuse (ChbI:NMRI); Dosis 10 (unit not given)): 40% and 80%
- Behandelte Tiere Überlebende % (Mäuse (ChbI: NMRI); 10 mg/kg p.o.): 50%
- Behandelte Tiere Überlebende % (Mäuse (ChbI: NMRI); 30 mg/kg p.o.): 30%
- Behandelte Tiere Überlebende % (Mäuse (ChbI: NMRI); 50 mg/kg p.o.): 80% and 100%

Compound: C[C@H](NC(=O)[C@@H](S)Cc1ccccc1)C(=O)N1CCC[C@H]1C(=O)OCOC(=O)C(C)(C)C [Verbindung 4, N-[N-(3-Phenyl-2-S-mercaptopropanoyl)-S-alanyl]-S-prolin-pivaloyloxymethylester]
- Behandelte Tiere Überlebende % (Mäuse (ChbI: NMRI); 10 mg/kg p.o.): 90%
- Behandelte Tiere Überlebende % (Mäuse (ChbI: NMRI); 30 mg/kg p.o.): 30%
- Behandelte Tiere Überlebende % (Mäuse (ChbI: NMRI); 50 mg/kg p.o.): 70% and 100%
